Laboratory results reported in ChEMBL document CHEMBL5465560, “Selectivity Literature for EUbOPEN Chemogenomic Library” (2024).

Key:
[1] = molecular target: Calcium/calmodulin-dependent protein kinase type II subunit delta (Homo sapiens) (UniProt Q13557); assay: Selectivity interaction (Kinase panel (DSF assay)) EUB0001558a CAMK2D
[2] = molecular target: T1, Mitogen-activated protein kinase 12 (Homo sapiens) (UniProt P53778); assay: Selectivity interaction (KinomeScan (DiscoverX)) EUB0000229b MAPK12; conditions: at 10 µM
T1 sequence (whole entry): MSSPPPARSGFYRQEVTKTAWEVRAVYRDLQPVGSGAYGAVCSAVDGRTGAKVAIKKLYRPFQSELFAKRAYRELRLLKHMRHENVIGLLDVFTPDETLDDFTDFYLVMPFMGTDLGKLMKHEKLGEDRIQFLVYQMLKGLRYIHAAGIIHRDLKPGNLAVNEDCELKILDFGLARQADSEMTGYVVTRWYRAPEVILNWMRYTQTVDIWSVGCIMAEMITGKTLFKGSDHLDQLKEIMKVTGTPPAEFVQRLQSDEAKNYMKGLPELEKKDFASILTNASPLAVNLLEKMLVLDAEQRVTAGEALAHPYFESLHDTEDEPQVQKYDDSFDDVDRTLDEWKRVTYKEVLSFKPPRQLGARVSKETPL

[3] = molecular target: Mitogen-activated protein kinase 8 (Homo sapiens, UniProt P45983); assay: Selectivity interaction (Enyzmatic assay) EUB0000601a MAPK8
Mitogen-activated protein kinase 8, sequence (P45983 whole entry): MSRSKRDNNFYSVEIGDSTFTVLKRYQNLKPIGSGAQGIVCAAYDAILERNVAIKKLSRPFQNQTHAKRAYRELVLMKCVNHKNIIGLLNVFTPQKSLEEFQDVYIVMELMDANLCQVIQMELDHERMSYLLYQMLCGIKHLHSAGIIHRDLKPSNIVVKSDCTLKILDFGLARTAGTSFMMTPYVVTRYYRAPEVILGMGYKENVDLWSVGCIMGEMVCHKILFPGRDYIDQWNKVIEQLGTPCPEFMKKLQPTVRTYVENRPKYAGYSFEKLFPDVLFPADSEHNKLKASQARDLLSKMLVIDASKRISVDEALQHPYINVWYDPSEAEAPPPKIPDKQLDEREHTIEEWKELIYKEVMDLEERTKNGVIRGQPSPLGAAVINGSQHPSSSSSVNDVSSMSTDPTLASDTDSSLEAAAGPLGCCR

[4] = molecular target: STE20-like serine/threonine-protein kinase (Homo sapiens, UniProt Q9H2G2); assay: Selectivity interaction (Kinase panel (Invitrogen)) EUB0000639a SLK; conditions: at 200 nM
STE20-like serine/threonine-protein kinase, sequence (Q9H2G2 whole entry, looked up): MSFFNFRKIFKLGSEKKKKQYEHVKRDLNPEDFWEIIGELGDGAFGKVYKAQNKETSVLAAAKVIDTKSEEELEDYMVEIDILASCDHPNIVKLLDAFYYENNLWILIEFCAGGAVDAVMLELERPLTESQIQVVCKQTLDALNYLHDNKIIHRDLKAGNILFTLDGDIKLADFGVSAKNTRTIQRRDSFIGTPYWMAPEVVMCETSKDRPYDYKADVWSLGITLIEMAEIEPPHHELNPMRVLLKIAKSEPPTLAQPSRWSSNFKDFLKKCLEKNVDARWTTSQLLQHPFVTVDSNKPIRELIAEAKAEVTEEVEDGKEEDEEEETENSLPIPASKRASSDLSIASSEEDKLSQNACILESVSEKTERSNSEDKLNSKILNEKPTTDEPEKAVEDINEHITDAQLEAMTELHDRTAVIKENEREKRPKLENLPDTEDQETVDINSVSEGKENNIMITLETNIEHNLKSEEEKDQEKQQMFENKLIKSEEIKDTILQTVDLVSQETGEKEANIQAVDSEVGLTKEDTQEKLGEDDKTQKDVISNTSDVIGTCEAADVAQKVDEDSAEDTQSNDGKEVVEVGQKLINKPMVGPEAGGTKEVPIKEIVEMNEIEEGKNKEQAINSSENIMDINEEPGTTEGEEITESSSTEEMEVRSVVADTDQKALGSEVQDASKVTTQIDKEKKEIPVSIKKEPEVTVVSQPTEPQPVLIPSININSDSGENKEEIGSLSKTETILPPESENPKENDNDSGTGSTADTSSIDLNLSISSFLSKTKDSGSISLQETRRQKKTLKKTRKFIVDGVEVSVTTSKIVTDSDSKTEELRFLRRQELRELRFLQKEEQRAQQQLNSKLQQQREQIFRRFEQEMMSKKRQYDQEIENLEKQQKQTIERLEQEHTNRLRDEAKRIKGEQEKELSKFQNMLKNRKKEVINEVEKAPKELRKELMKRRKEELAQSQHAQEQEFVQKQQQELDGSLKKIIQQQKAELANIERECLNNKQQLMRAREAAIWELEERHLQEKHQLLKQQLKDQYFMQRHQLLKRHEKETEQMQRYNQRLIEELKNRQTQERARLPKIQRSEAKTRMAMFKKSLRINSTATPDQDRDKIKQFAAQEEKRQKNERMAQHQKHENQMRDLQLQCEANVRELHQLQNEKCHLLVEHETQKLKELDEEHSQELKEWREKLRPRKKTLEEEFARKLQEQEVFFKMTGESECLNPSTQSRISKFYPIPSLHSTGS

[5] = molecular target: 3',5'-cyclic-AMP phosphodiesterase 4B (Homo sapiens) (UniProt Q07343); assay: Selectivity interaction (Panel of kinases, GPCRs, ion channels and transporters (enzymatic assay)) EUB0000223bCl PDE4B
3',5'-cyclic-AMP phosphodiesterase 4B (Homo sapiens), sequence (Q07343 whole entry): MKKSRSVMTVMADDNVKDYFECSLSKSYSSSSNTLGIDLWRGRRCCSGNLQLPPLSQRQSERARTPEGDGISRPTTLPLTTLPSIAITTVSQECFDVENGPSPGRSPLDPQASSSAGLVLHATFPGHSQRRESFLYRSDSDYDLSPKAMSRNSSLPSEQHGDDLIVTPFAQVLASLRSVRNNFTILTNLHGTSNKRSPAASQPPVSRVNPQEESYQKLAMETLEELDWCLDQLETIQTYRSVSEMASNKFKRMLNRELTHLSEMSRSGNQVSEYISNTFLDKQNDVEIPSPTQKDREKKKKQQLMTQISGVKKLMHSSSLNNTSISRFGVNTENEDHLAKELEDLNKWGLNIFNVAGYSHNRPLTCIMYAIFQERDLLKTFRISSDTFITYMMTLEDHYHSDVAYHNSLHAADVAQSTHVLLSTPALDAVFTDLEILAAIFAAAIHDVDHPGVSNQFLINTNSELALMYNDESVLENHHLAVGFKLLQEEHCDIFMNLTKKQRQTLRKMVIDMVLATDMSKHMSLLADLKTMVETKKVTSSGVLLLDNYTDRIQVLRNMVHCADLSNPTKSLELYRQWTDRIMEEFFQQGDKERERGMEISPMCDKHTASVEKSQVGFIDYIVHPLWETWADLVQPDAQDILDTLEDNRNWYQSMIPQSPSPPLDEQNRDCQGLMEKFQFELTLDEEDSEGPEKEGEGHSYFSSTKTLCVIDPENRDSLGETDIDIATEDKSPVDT

[6] = molecular target: T2, Mitogen-activated protein kinase kinase kinase kinase 2 (Homo sapiens) (UniProt Q12851); assay: Selectivity interaction (KinomeScan (DiscoverX)) EUB0000607a MAP4K2; conditions: at 10 µM
T2 sequence (whole entry): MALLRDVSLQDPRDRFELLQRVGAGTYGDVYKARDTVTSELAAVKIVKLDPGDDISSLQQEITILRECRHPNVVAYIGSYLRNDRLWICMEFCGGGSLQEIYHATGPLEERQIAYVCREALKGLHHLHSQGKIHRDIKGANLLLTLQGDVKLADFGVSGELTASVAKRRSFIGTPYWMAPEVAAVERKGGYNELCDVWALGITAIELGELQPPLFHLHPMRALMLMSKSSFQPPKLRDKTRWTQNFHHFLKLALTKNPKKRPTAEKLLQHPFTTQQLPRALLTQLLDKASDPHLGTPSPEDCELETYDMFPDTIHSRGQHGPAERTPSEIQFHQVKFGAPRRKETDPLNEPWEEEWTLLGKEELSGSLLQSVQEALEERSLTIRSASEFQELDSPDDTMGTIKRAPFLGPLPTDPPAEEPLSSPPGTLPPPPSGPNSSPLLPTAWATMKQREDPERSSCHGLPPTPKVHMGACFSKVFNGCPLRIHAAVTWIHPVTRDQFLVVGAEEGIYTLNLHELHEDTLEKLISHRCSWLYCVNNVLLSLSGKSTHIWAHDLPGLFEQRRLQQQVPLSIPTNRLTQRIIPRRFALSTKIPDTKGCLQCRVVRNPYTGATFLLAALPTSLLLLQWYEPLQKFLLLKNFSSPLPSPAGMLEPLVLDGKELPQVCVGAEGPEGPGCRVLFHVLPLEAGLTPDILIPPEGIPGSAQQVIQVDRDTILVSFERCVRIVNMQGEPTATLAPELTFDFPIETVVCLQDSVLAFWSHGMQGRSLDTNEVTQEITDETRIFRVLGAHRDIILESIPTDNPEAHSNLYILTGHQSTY

[7] = molecular target: T3, Serine/threonine-protein kinase 3 (Homo sapiens) (UniProt Q13188); assay: Selectivity interaction (KinomeScan (DiscoverX)) EUB0001049a STK3; conditions: at 1 µM
T3 sequence (whole entry): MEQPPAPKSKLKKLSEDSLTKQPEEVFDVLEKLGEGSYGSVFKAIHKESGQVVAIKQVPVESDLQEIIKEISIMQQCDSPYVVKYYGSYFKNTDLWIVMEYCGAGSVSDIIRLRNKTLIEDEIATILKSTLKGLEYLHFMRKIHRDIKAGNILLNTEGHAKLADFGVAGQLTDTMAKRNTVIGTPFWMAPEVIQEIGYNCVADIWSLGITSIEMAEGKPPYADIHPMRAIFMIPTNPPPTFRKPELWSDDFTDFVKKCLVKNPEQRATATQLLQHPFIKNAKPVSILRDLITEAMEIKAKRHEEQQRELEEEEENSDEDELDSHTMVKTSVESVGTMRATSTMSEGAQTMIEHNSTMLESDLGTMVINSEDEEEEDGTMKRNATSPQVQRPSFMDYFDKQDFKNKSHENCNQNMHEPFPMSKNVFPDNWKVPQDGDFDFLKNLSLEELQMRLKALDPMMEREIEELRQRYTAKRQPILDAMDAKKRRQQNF

[8] = molecular target: Fibroblast growth factor receptor 4 (Homo sapiens, UniProt P22455); assay: Selectivity interaction (KinomeScan (DiscoverX)) EUB0000695a FGFR4; conditions: at 100 nM
Fibroblast growth factor receptor 4, sequence (P22455 22-802 limits assumed): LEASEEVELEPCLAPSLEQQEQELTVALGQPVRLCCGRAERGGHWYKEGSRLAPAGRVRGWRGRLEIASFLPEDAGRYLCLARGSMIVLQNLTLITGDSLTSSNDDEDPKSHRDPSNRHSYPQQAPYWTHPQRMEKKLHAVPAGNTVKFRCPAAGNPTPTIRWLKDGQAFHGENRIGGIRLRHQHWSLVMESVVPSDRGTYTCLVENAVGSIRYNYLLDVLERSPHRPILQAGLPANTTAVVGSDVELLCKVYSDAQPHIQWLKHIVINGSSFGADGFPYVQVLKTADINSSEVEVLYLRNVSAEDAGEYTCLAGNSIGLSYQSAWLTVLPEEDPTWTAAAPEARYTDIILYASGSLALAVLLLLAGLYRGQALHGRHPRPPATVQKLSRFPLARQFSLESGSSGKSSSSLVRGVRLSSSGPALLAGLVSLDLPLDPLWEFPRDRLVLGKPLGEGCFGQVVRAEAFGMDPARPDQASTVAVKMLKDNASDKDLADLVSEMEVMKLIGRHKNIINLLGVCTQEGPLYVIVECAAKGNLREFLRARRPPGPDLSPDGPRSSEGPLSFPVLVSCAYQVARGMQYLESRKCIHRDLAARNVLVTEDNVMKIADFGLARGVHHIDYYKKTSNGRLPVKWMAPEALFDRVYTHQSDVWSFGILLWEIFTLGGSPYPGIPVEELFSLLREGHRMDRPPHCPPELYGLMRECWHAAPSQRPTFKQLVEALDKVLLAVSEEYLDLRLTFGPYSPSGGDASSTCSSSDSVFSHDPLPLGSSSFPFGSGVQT

[9] = molecular target: T4, Serine/threonine-protein kinase ICK (Homo sapiens) (UniProt Q9UPZ9); assay: Selectivity interaction (KinomeScan (DiscoverX)) EUB0000695a ICK; conditions: at 100 nM
T4 sequence (whole entry): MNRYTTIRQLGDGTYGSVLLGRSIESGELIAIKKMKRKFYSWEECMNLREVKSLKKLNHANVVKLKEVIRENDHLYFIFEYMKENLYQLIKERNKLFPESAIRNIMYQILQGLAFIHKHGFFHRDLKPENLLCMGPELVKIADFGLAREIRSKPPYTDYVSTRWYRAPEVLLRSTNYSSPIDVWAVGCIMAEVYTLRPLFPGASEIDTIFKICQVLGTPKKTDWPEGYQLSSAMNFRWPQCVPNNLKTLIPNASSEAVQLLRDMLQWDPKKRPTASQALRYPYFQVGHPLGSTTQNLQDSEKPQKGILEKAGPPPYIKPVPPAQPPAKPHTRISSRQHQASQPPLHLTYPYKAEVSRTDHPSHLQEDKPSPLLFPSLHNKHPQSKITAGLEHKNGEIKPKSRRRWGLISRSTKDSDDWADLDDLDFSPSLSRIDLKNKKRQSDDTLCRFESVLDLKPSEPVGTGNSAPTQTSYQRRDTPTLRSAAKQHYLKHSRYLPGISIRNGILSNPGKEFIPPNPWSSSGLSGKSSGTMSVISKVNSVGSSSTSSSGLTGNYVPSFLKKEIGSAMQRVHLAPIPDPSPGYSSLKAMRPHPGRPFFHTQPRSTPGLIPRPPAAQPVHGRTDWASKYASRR

Calcium/calmodulin-dependent protein kinase type II subunit delta (Homo sapiens), sequence (Q13557 whole entry): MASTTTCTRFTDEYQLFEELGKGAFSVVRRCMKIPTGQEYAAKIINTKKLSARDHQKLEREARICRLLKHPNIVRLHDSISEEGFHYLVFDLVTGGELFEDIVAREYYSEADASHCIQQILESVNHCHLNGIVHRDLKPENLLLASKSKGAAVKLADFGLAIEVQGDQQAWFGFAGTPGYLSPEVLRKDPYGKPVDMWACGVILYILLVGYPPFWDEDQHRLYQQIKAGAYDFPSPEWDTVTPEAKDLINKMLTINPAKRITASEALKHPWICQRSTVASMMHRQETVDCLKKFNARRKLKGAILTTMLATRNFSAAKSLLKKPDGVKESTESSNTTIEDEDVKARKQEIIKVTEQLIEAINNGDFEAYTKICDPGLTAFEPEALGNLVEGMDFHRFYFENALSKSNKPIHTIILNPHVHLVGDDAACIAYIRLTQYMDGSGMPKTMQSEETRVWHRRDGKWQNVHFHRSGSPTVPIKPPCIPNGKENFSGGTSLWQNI

`CC(C)(O)[C@H](F)CN1Cc2cc(NC(=O)c3cnn4cccnc34)c(N3CCOCC3)cc2C1=O` showed a dTM [1] of 0.3 K.
Work on `COc1cc(N(C)c2ccnc3ccc(C(F)(F)F)cc23)cc(OC)c1OC` yielded a % binding [2] of 100%.
`CCc1cc(Nc2nccc(-c3c(-c4ccc(OC)c(C(=O)Nc5c(F)cccc5F)c4)nc4ccccn34)n2)c(OC)cc1N1CCC(N2CCN(S(C)(=O)=O)CC2)CC1` gave an IC50 [3] of over 10 µM.
`CC[C@@H]1[C@H](F)C(=O)N[C@@H]1COc1nccc2cc(C(N)=O)c(OC)cc12` [ZIMLOVISERTIB] was tested, and the % of inhibition [4] was -0.0851%.
Molecule `COc1cc(C(=O)N2CC[C@@H](O)[C@@H](N)C2)cc2nc(-c3cc4ccccc4n3CC3CC3)n(C)c12` has a pXC50 [5] of 4.4 M.
Molecule `CNC(=O)Nc1ccc(-c2nc(N3CC4CCC(C3)O4)c3cnn(C4CCC5(CC4)OCCO5)c3n2)cc1` has a % of control [6] of 100%.
`COc1cc(Nc2nc(C)cc(-c3cnn4nc(OC)ccc34)n2)cc(C(F)(F)F)c1` was tested, and the % of control [7] was 100%.
In the case of `Cc1cc(F)c(C(=O)Nc2cccc(-c3nncn3C(C)C)n2)cc1-n1cnc(C2CC2)c1`, the % of control [8] is reported as 100% and the % of control [9] is reported as 100%.
